Source: patent US20210236449A1, “USE OF CHLOROGENIC ACID IN PREPARING DRUG FOR PREVENTING OR BLOCKING BRAIN AND/OR BONE METASTASES OF LUNG CANCER” (SICHUAN JIUZHANG BIOLOGICAL SCIENCE AND TECHNOLOGY CO., LTD, priority 2018, published 2021)
Marks after values point to notes of the source that are not given here.

Test system: EGFP-LA795 cells
Assay: Inhibitory effect of chlorogenic acid on metastasis in LA795 lung cancer mice
Type: in vivo, T739 mice
Conditions: for Abdominal metastasis / Axial bone metastasis / Bloody ascites / Brain metastasis / Limb bone metastasis / Local lymph node metastasis: once a day for 20 days, mice with finding/n = 10
Excerpt: (1) Animals: T739 mice, half male and half female, weighing 18-22 g, are provided by the Experimental Animal Center of Sichuan University.
(2) Lung cancer cell lines: LA795, provided by Wuhan Procell Life Technology Co., Ltd.; Fetal bovine serum, provided by Hangzhou Sijiqing Bioengineering Materials Co., Ltd.; plasmid EGFP-C1, provided by Clontech; Liposome transfection reagent Lipofectamin 2000, provided by Invitrogen.
LA795 cells were inoculated in a 6-well culture plate at 1×10^7 cells/mL, using DMEM complete medium containing 10% fetal bovine serum, and cultured in a 37° C., 5% CO2 incubator. When the cells were about 70% fused, liposome transfection reagent lipid Lipofectamin2000 was used and LA795 cells were transfected into plasmid EGFP-C1. 48 h after transfection, cells were passed and screened by G 418, then anti-G418 fluorescent positive clones appeared after about 4 weeks. Clones were observed under fluorescent inverted microscope, and one resistant fluorescent cell clone was randomly picked and transferred to 96-well plate for culture. After stepwise expansion, cells were routinely cultured and passaged. 400 μg/ml G418 was used to maintain screening and obtain expanded EGFP-LA795 cells. When EGFP-LA795 cells are 80%-90% fused in the logarithmic growth phase, they are digested with 0.25% trypsin, then centrifuged, and the cells are resuspended in DMEM to prepare a cell suspension for seeding (cell concentration 1×10^7 cells/mL). EGFP-LA795 cells grown on the wall were trypsinized to prepare a single cell suspension, and then diluted appropriately. The cell suspension was mixed with 0.4% trypan blue solution and counted under the microscope. The survival rate of EGFP-LA795 cells was >90%, and the positive clones were picked out under an inverted fluorescence microscope, followed by culture and amplification, to obtain LA795 cells with green fluorescence.
0.2 ml of EGFP-LA795 cell suspension at 1.0×10^7 cells/ml was inoculated into the armpit of mice, and then the mice were randomly divided into groups, 10 mice for each group, including the high-dose chlorogenic acid group, the middle-dose chlorogenic acid group, and the low-dose chlorogenic acid group and the model control group. Chlorogenic acid was administered by intraperitoneal injection, 40 mg/kg for the high-dose group, 20 mg/kg for the middle-dose group, 10 mg/kg for the low-dose group, and the administration volume was 1.0 ml; the model control group was given the same volume of normal saline by intraperitoneal injection, once a day for 20 days. In vivo imaging observations were performed on days 0, 10, and 20, respectively. After the test, the mice were sacrificed by cervical dislocation, and peripheral lymph nodes, axial bones, and long bones of the limbs were taken to observe and count metastases.
10% chloral hydrate was intraperitoneally injected at 4 ml/kg for anesthetization, and mice were put on the black rubber pad prepared for the in vivo imager. The irradiation conditions were GFP, the emission wavelength was 520 nm, the excitation wavelength was 480 nm, and the exposure time was 5 ms. The volume changes and metastasis of the tumor were observed.
Surrounding lymph nodes were taken out, and 8 μm conventional and frozen sections were obtained, and routinely stained with hematoxylin-eosin (HE) every other one, to observe the tumor metastasis under fluorescence microscope and light microscope.
Axial bones (such as ribs, spine, ilium, scapula) and long bones of the limbs of mice were chosen, cut into 0.5 cm×0.3 cm×0.3 cm bone pieces, and fixed with frozen 4% paraformaldehyde solution at 5° C. for 12 h-24 h; the bones were rinsed with phosphate buffer and decalcified with EDTA until the bone slices were completely decalcified. […]

[1] = high dose group, 40 mg/kg intraperitoneal injection
[2] = low dose group, 10 mg/kg intraperitoneal injection
[3] = medium dose group, 20 mg/kg intraperitoneal injection

Structure (SMILES): O=C(/C=C/c1ccc(O)c(O)c1)O[C@@H]1C[C@](O)(C(=O)O)C[C@@H](O)[C@H]1O [Chlorogenic acid, chlorogenic acid]
- metastasis of LA795 lung cancer cells in mice (20 mg/kg medium-dose group): No metastasis was found
- Abdominal metastasis [1]: 1/10*
- Axial bone metastasis [1]: 0/10*
- Bloody ascites [1]: 0/10*
- Brain metastasis [1]: 0/10*
- Limb bone metastasis [1]: 0/10*
- Local lymph node metastasis [1]: 1/10*
- Abdominal metastasis [2]: 2/10*
- Axial bone metastasis [2]: 0/10*
- Bloody ascites [2]: 0/10*
- Brain metastasis [2]: 0/10*
- Limb bone metastasis [2]: 0/10*
- Local lymph node metastasis [2]: 1/10*
- number of metastatic foci in mice (low, medium and high dose groups versus model control group): significantly reduced
- Abdominal metastasis [3]: 0/10*
- Axial bone metastasis [3]: 0/10*
- Bloody ascites [3]: 0/10*
- Brain metastasis [3]: 0/10*
- Limb bone metastasis [3]: 0/10*
- Local lymph node metastasis [3]: 0/10*
